According to PubChem BioAssay (NCI):
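Briefly, cells in 96-well plates were exposed to five compound concentrations for 48 h, and endpoints were estimated by linear interpolation. The concentration for full growth arrest is given as TGI.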

Experiments:
Test in all cases: NCI anticancer screen, dose series, 48 h
HL-60(TB) leukemia = tested on: HL-60(TB) leukemia
A549 NSCLC = tested on: A549 NSCLC
MCF7 breast = tested on: MCF7 breast
NCI-H460 lung = tested on: NCI-H460 lung
CAKI-1 renal = tested on: CAKI-1 renal
SF-295 CNS = tested on: SF-295 CNS
SR leukemia = tested on: SR leukemia
SNB-75 CNS = tested on: SNB-75 CNS
ACHN renal = tested on: ACHN renal
OVCAR-3 ovarian = tested on: OVCAR-3 ovarian
RPMI-8226 leukemia = tested on: RPMI-8226 leukemia
SN12C renal = tested on: SN12C renal
SF-268 CNS = tested on: SF-268 CNS
MDA-MB-231 breast = tested on: MDA-MB-231 breast

| Compound | TGI (HL-60(TB) leukemia) [µM] | TGI (A549 NSCLC) [µM] | TGI (MCF7 breast) [µM] | TGI (NCI-H460 lung) [µM] | TGI (CAKI-1 renal) [µM] | TGI (SF-295 CNS) [µM] | TGI (SR leukemia) [µM] | TGI (SNB-75 CNS) [µM] | TGI (ACHN renal) [µM] | TGI (OVCAR-3 ovarian) [µM] | TGI (RPMI-8226 leukemia) [µM] | TGI (SN12C renal) [µM] | TGI (SF-268 CNS) [µM] | TGI (MDA-MB-231 breast) [µM] |
| --- | --- | --- | --- | --- | --- | --- | --- | --- | --- | --- | --- | --- | --- | --- |
| O=C(c1ccccc1)N(C(=O)c1ccccc1)c1nc(SCc2ccccc2)ns1 | 52.6 | > 100 | > 100 | 56.2 | > 100 | 79.1 | 57.9 | 58.1 | > 100 | 59.4 | 56.6 | 64.7 | > 100 |  |
| NC(=O)C(=O)C1CCC2=C(Sc3ccccc3N2)C1=O (configuration not stated) | > 100 | > 100 |  | > 100 | > 100 |  |  | > 100 | > 100 | > 100 | > 100 |  | > 100 |  |
| O=c1c2cc(S(=O)(=O)O)ccc2nc(COc2ccc(Oc3ccc(Cl)cc3Cl)cc2)n1-c1ccc(Oc2ccc(Cl)cc2)cc1Cl | 76 | 40.6 | 40.6 | 32.8 | > 100 | 35.5 | 46.5 | 50.1 | 56.6 | 36.9 | 65.4 | 32.9 | 26 |  |
| CN(C)C(=NCc1ccccc1)NC#N |  | > 100 |  | > 100 | > 100 | > 100 |  |  | > 100 | > 100 |  | > 100 | > 100 |  |
| COC(=O)c1ccc(S)c(S(=O)(=O)Nc2n[nH]c(N)n2)c1 | > 100 | > 100 |  | > 100 | > 100 | > 100 | > 100 |  | > 100 | > 100 | > 100 | > 100 |  | > 100 |
| CCOP1(=O)C=C(C)C(Cl)=C(C)C1 (configuration not stated) | 53.9 | 65 |  | > 100 |  | > 100 | > 100 | 69.7 | 72.2 | > 100 | 62.6 | 51.5 | > 100 |  |
| C/C(=C\CBr)CCC(Br)C(C)(C)Cl (configuration not stated) |  | > 100 |  | > 100 | > 100 | > 100 | > 100 | > 100 | > 100 |  | > 100 | > 100 | > 100 |  |
| CCN(CC)c1ccc2c(c1)Oc1ccc(N(CC)CC)cc1C21Oc2ccccc2-c2c1c1ccccc1n2CC (configuration not stated) | 11 | > 100 |  |  | > 100 | > 100 | > 100 | > 100 | > 100 | > 100 | > 100 | > 100 | > 100 |  |
| CCOC(=O)C(C(=O)OCC)=C1NC2(c3ccccc3Nc3ccccc32)C(C#N)S1 (configuration not stated) | 55.5 | 20.9 | 13.3 | 15.2 | 53.7 | 40 | 6.81 | 53.2 | 52.8 | 4.78 | 7.07 | 18.9 | 39 |  |
| C/C=C/C#CC#C/C=C/C=C/C(O)CCO (configuration not stated) | > 23.1 | > 23.1 |  | > 23.1 | > 23.1 | > 23.1 | > 23.1 | > 23.1 | > 23.1 | > 23.1 | > 23.1 | > 23.1 | > 23.1 |  |
| NNC(=O)c1c(-c2cccnc2)cnc2ccccc12 | > 100 | > 100 | > 100 | > 100 | > 100 | > 100 | > 100 | > 100 | > 100 | > 100 | > 100 | > 100 | > 100 |  |
| [O-]c1c2cc(-[n+]3c(-c4ccccc4)cc(-c4ccccc4)cc3-c3ccccc3)cc1COCCOCCOCCOCCOC2 | > 100 | > 100 |  |  | > 100 | > 100 | 65.7 | > 100 | > 100 |  |  | > 100 | 93.5 |  |
| O=[N+]([O-])c1cccc2nc3ccccc3c(NCCCNc3c4ccccc4nc4cccc([N+](=O)[O-])c34)c12 | 0.328 | 0.166 |  |  | 0.118 | 1.5 |  | 0.277 | 0.0135 | 0.0906 |  | 0.0976 | 0.0387 | 0.0311 |
| Nc1c([N+](=O)[O-])nc(Cl)c2nncn12 | > 100 | > 100 |  | > 100 | > 100 | > 100 | 41.9 | > 77.7 | > 100 | > 100 | > 69.7 | > 100 | > 100 |  |
| CCOC(=O)C1(F)S(=O)(=O)OCCOS1(=O)=O |  | > 100 | > 100 |  | > 100 | > 100 | > 100 | > 100 | > 100 | > 100 | > 100 | > 100 | > 100 |  |
| O=C(CCC1C(=O)NC(=S)NC1=O)c1ccc2ccccc2c1 | > 100 | > 100 |  | > 100 | > 100 | > 100 | > 100 | > 100 | > 100 | > 100 |  | > 100 | > 100 |  |
